Tests used:
[1] = test system: drug-resistant P. falciparum; conditions: imipramine vs desipramine; amitriptyline vs nortriptyline; cited from earlier work
[2] = human, in vivo; cited from earlier work
[3] = test system: drug-resistant P. falciparum; experiment: in vitro chemosensitization/resistance-reversal (C/RR) potency, strain not stated; format: cell-based
Protocol: (§1) All in vitro studies were 72 hour growth inhibition assays, starting with 0.2% parasitemia, 2% hematocrit under standard culture conditions in 96 well microplates. Growth was quantified using the fluorescence-based assay developed in our lab (Smilkstein et al; Antimicrobial Agents and Chemotherapy 2004;48:1803-1806). EC50 determined by non-linear regression curve fitting (sigmoidal dose-response, variable slope equation) using GraphPad Prism software. Isobolograms and EC50,75 and 90 estimates computed using CalcuSyn software (Biosoft, T. C. Chou).

[4] = human, in vivo; cited from earlier work; remark: listed apart in the source
[5] = test system: P. falciparum Dd2 (multidrug resistant)
Protocol: as §1
(§2) 2. […] In the following figures, fixed-ratio combinations of 2 drugs are made at the concentrations of each described in the figure legend (Fivelman, Adagu and Warhurst. Antimicrobial Agents and Chemotherapy 2004;48:4097-4102). Then, in quadruplicate, each of these combinations is diluted serially 2-fold, yielding one curve for each starting mixture. The data are expressed using the concentration of the antimalarial of interest on the X axis. […] In each starting combination, an increase of one drug is accompanied by a corresponding decrease in the other. As a result, overlapping curves indicate an additive relationship; a shift to the left, synergy; and a shift to the right, antagonism. • b. One representative isobologram from each of the experiments is included to the right of the figure, showing lines predictive of EC50,75 and 90 if the combinations were additive in effect. Points falling to the lower left of the predictive lines indicate synergy; those on or near the line, additive effects.

[6] = test system: P. falciparum W2 (chloroquine-resistant); experiment: 72 hour growth inhibition assay, fluorescence-based, strain W2; format: cell-based; conditions: fixed-ratio combinations, isobologram
Protocol: as §1
as §2, with “One representative isobologram from each of the experiments is included to the right of the figure, showing lines predictive of EC50,75 and 90 if the combinations were additive in effect. Points falling to the lower left of the predictive lines indicate synergy; those on or near the line, additive effects.” left out

[7] = test system: P. falciparum D6 (CQ sensitive, mefloquine resistant); experiment: 72 hour growth inhibition assay, fluorescence-based, strain D6; format: cell-based
Protocol: as §1
as §2, with “One representative isobologram from each of the experiments is included to the right of the figure, showing lines predictive of EC50,75 and 90 if the combinations were additive in effect. Points falling to the lower left of the predictive lines indicate synergy; those on or near the line, additive effects.” left out

CQ-resistant P. chabaudi = conditions: mice, drug alone

CN(C)CCCN1c2ccccc2CCc2ccccc21 [imipramine]
resistance-reversal potency, dimethylamine vs monomethylamine pair [1]: no substantial difference

CNCCCN1c2ccccc2CCc2ccccc21 [desipramine]
resistance-reversal potency, dimethylamine vs monomethylamine pair [1]: no substantial difference | typical serum concentrations in clinical use [2]: 100 to 500 nM

CN(C)CCC(c1ccc(Cl)cc1)c1ccccn1 (single isomer, unassigned; (-)) [(−)CP]
C/RR activity ([3]; in vitro): active

CN(C)CCC=C1c2ccccc2CCc2ccccc21 [amitriptyline]
resistance-reversal potency, dimethylamine vs monomethylamine pair [1]: no substantial difference

CN(C)CCC(c1ccccc1)c1ccccn1 (stereo not drawn) [pheniramine]
concentrations achieved in clinical use relative to BP or CP [2]: roughly 20 fold | sedation as side effect [4]: shares sedation as a side effect

CN(C)CCC(c1ccc(Br)cc1)c1ccccn1 (stereo not drawn) [BP, brompheniramine]
C/RR potency of the (+/−) and (+) forms compared ([3]; in vitro): equipotent

CN(C)CCC(c1ccc(Cl)cc1)c1ccccn1 (racemic) [chlorpheniramine]
C/RR potency of the (+/−) and (+) forms compared ([3]; in vitro): equipotent | typical serum concentrations in clinical use [2]: < 100 nM | sedation as side effect [4]: consistently causes drowsiness

Cc1ccccc1C(OCCN(C)C)c1ccccc1 (racemic) [orphenadrine]
interaction with mefloquine ([5]; Dd2, resistant to mefloquine): synergistic | interaction with quinine ([5]; Dd2, resistant to quinine): synergistic | interaction with CQ ([5]; Dd2, fixed-ratio combinations, isobologram): synergistic | interaction with CQ [6]: synergistic | interaction with mefloquine ([7]; D6, resistant to mefloquine): synergistic | interaction with CQ ([7]; D6, fixed-ratio combinations, isobologram): not against CQ sensitive D6 | effect on sensitivity to quinine or mefloquine ([3]; strains resistant to those drugs): increases sensitivity to quinine or mefloquine | parasitemia at completion of 4 treatment days (CQ-resistant P. chabaudi): decreased parasitemia | sedation as side effect [4]: does not typically cause sedation

CNCCC=C1c2ccccc2CCc2ccccc21 [nortriptyline]
resistance-reversal potency, dimethylamine vs monomethylamine pair [1]: no substantial difference

From US20080108655A1, “Drug composition and method for treating malaria and malignancy” (priority 2005, published 2008)
